We go through 42 molecules from patent US7998978B2 (Pfizer Inc., priority 2006, dated 2011).

pKi: −log10 of the molar value.

This assay addresses T1, JNK1α1 (Homo sapiens, UniProt P45983).
T1 construct: catalytic domain containing amino acids 1-364 and N-terminal hexahistidine tag; hexahistidine (His6) (N); made in house; host or cells: E. coli BL21 (DE3)
The assay can be described thus: Coupled spectrophotometric (PK/LDH) JNK1α1 assay: % inhibition and Ki determination. The class given is biochemical. The conditions noted are these: JNK-1. Put shortly: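 Initial rates were taken from the absorbance decrease at 340 nm at 30° C. Ki was fitted with a tight-binding model over 11 concentrations (top 100 μM); single-point inhibition was tested at 1 or 10 μM.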

T1 sequence (P45983 1-364): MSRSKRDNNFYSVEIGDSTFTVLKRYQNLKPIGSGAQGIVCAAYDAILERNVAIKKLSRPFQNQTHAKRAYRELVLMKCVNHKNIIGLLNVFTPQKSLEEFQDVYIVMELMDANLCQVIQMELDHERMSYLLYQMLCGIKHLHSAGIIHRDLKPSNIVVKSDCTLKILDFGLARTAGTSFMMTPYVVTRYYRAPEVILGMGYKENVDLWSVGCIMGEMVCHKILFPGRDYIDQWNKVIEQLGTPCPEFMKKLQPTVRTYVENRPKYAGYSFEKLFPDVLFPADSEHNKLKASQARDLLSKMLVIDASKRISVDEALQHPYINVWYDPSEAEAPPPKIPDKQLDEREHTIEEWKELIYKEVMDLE

Take `O=C(NCc1ccccc1)c1cccc2cnc(N[C@H]3CC[C@H](O)CC3)nc12` [Example 124, N-benzyl-2-[(trans-4-hydroxycyclohexyl)amino]quinazoline-8-carboxamide]: the pKi (commonly the Ki on a negative log10 scale, so that one unit is a factor of ten) was 6.39.

As for `O=C(Nc1nccc(O)n1)c1cccc2cnc(N[C@H]3CC[C@H](O)CC3)nc12` [Example 125, 2-[(trans-4-hydroxycyclohexyl)amino]-N-(4-hydroxypyrimidin-2-yl)quinazoline-8-carboxamide], the pKi was 6.28.

The molecule `CC(O)c1cccc(NC(=O)c2cccc3cnc(N[C@H]4CC[C@H](O)CC4)nc23)n1` (stereo partly drawn) [Example 126, 2-[(trans-4-hydroxycyclohexyl)amino]-N-[6-(1-hydroxyethyl)pyridin-2-yl]quinazoline-8-carboxamide] gave a pKi of 6.42.

The molecule `CN(C)CCNC(=O)c1cccc2cnc(N[C@H]3CC[C@H](O)CC3)nc12` [Example 127, N-[2-(dimethylamino)ethyl]-2-[(trans-4-hydroxycyclohexyl)amino]quinazoline-8-carboxamide] had a negative logarithm of the Ki (pKi) of 5.46.

In turn, `CC(C)(N)CNC(=O)c1cccc2cnc(N[C@H]3CC[C@H](O)CC3)nc12` [Example 128, N-(2-amino-2-methylpropyl)-2-[(trans-4-hydroxycyclohexyl)amino]quinazoline-8-carboxamide] showed a pKi of 5.46.

`O=C(NCC1(O)CCC1)c1cccc2cnc(N[C@H]3CC[C@H](O)CC3)nc12` [Example 129, N-[(1-hydroxycyclobutyl)methyl]-2-[(trans-4-hydroxycyclohexyl)amino]quinazoline-8-carboxamide] gave a pKi of 6.89.

In turn, `CC(C)(O)CNC(=O)c1cccc2cnc(N[C@H]3CC[C@H](NS(C)(=O)=O)CC3)nc12` [Example 130, N-(2-hydroxy-2-methylpropyl)-2-({trans-4-[(methylsulfonyl)amino]cyclohexyl}amino)quinazoline-8-carboxamide] gave a negative logarithm of the Ki (pKi) of 6.85.

In turn, `C[C@@H](CO)NC(=O)c1cccc2cnc(N[C@H]3CC[C@H](NS(C)(=O)=O)CC3)nc12` [Example 131, N-[(1S)-2-hydroxy-1-methylethyl]-2-({trans-4-[(methylsulfonyl)amino]cyclohexyl}amino)quinazoline-8-carboxamide] had a pKi of 7.11.

As to `CC(C)(CO)NC(=O)c1cccc2cnc(N[C@H]3CC[C@H](NS(C)(=O)=O)CC3)nc12` [Example 132, N-(2-hydroxy-1,1-dimethylethyl)-2-({trans-4-[(methylsulfonyl)amino]cyclohexyl}amino)quinazoline-8-carboxamide], the pKi was 7.11.

`CC(=O)N[C@H]1CC[C@H](Nc2ncc3cccc(C(=O)N[C@@H](C)CO)c3n2)CC1` [Example 133, 2-{[trans-4-(acetylamino)cyclohexyl]amino}-N-[(1S)-2-hydroxy-1-methylethyl]quinazoline-8-carboxamide] showed a negative-log Ki (pKi) of 6.68.

The molecule `CC(=O)N[C@H]1CC[C@H](Nc2ncc3cccc(C(=O)NC(C)(C)CO)c3n2)CC1` [Example 134, 2-{[trans-4-(acetylamino)cyclohexyl]amino}-N-(2-hydroxy-1,1-dimethylethyl)quinazoline-8-carboxamide] showed a negative-log Ki (pKi) of 6.90.

The molecule `CC(=O)N[C@H]1CC[C@H](Nc2ncc3cccc(C(=O)NCC(C)(C)O)c3n2)CC1` [Example 135, 2-{[trans-4-(acetylamino)cyclohexyl]amino}-N-(2-hydroxy-2-methylpropyl)quinazoline-8-carboxamide] gave a pKi of 6.52.

Consider `O[C@H]1CC[C@H](Nc2ncc3ccc(F)cc3n2)CC1` [Example 143, trans-4-[(7-fluoroquinazolin-2-yl)amino]cyclohexanol], for which the negative-log Ki (pKi) was 6.47.

In turn, `O[C@H]1CC[C@H](Nc2ncc3ccc(OC4CCOC4)cc3n2)CC1` (stereo partly drawn) [Example 144, trans-4-{[7-(tetrahydrofuran-3-yloxy)quinazolin-2-yl]amino}cyclohexanol] showed a pKi of 6.90.

As for `COc1ccc2cnc(N[C@H]3CC[C@H](O)CC3)nc2c1` [Example 145, trans-4-[(7-methoxyquinazolin-2-yl)amino]cyclohexanol], the pKi was 6.91.

`Oc1ccc2cnc(N[C@H]3CC[C@H](O)CC3)nc2c1` [Example 146, 2-[(trans-4-hydroxycyclohexyl)amino]quinazolin-7-ol] had a pKi of 6.75.

For `c1ccc2nc(NC3CCCCC3)ncc2c1` [Example 147], the pKi was 6.34.

For `Fc1ccc2cnc(NC3CCCCC3)nc2c1` [Example 148], the negative-log Ki (pKi) was 6.34.

Consider `COc1cccc2cnc(NC3CCCCC3)nc12` [Example 149], for which the negative logarithm of the Ki (pKi) is 6.31.

Consider `COc1cccc2cnc(N[C@H]3CC[C@H](O)CC3)nc12` [Example 150], for which the negative-log Ki (pKi) is 6.44.

In the case of `O[C@H]1CC[C@H](Nc2ncc3ccccc3n2)CC1` [Example 151, trans-4-(quinazolin-2-ylamino)cyclohexanol], the pKi is 6.36.

As to `Oc1cccc2cnc(N[C@H]3CC[C@H](O)CC3)nc12` [Example 152, 2-[(trans-4-hydroxycyclohexyl)amino]quinazolin-8-ol], the pKi was 6.38.

On to `O[C@H]1CC[C@H](Nc2ncc3ccc(OCc4ccccn4)cc3n2)CC1` [Example 153, trans-4-{[7-(pyridin-2-ylmethoxy)quinazolin-2-yl]amino}cyclohexanol], for which the pKi is 6.73.

On to `O[C@H]1CC[C@H](Nc2ncc3ccc(OCCN4CCOCC4)cc3n2)CC1` [Example 154, trans-4-{[7-(2-morpholin-4-ylethoxy)quinazolin-2-yl]amino}cyclohexanol], for which the pKi was 6.39.

As for `O[C@H]1CC[C@H](Nc2ncc3ccc(OCC4CCOC4)cc3n2)CC1` (stereo partly drawn) [Example 155, trans-4-{[7-(tetrahydrofuran-3-ylmethoxy)quinazolin-2-yl]amino}cyclohexanol], the pKi is 6.81.

As for `CN1CCC(COc2ccc3cnc(N[C@H]4CC[C@H](O)CC4)nc3c2)CC1` [Example 156, trans-4-({7-[(1-methylpiperidin-4-yl)methoxy]quinazolin-2-yl}amino)cyclohexanol], the pKi was 6.01.

Molecule `CN(C)CCOc1ccc2cnc(N[C@H]3CC[C@H](O)CC3)nc2c1` [Example 157, trans-4-({7-[2-(dimethylamino)ethoxy]quinazolin-2-yl}amino)cyclohexanol] had a pKi of 5.75.

`O[C@H]1CC[C@H](Nc2ncc3ccc(OCC4CCOCC4)cc3n2)CC1` [Example 158, trans-4-{[7-(tetrahydro-2H-pyran-4-ylmethoxy)quinazolin-2-yl]amino}cyclohexanol] gave a pKi of 6.70.

`O[C@H]1CC[C@H](Nc2ncc3ccc(O[C@@H]4CCOC4)cc3n2)CC1` [Example 159, trans-4-({7-[(3R)-tetrahydrofuran-3-yloxy]quinazolin-2-yl}amino)cyclohexanol] showed a negative logarithm of the Ki (pKi) of 6.72.

Take `O[C@H]1CC[C@H](Nc2ncc3ccc(O[C@H]4CCOC4)cc3n2)CC1` [Example 160, trans-4-({7-[(3S)-tetrahydrofuran-3-yloxy]quinazolin-2-yl}amino)cyclohexanol]: the negative-log Ki (pKi) is 7.15.

Regarding `O[C@H]1CC[C@H](Nc2ncc3ccc(Oc4ccccc4)cc3n2)CC1` [Example 161, trans-4-[(7-phenoxyquinazolin-2-yl)amino]cyclohexanol], the pKi was 6.95.

Consider `CS(=O)(=O)N[C@H]1CC[C@H](Nc2ncc3ccc(OC4CCOC4)cc3n2)CC1` (stereo partly drawn) [Example 162, N-(trans-4-{[7-(tetrahydrofuran-3-yloxy)quinazolin-2-yl]amino}cyclohexyl)methanesulfonamide], for which the negative logarithm of the Ki (pKi) is 6.59.

With `c1cc2cnc(NC3CCOCC3)nc2cc1O[C@H]1CCOC1` [Example 163, 7-[(3S)-tetrahydrofuran-3-yloxy]-N-(tetrahydro-2H-pyran-4-yl)quinazolin-2-amine], the negative logarithm of the Ki (pKi) was 5.76.

Turning to `CC(=O)N[C@H]1CC[C@H](Nc2ncc3ccc(OC4CCOC4)cc3n2)CC1` (stereo partly drawn) [Example 164, N-(trans-4-{[7-(tetrahydrofuran-3-yloxy)quinazolin-2-yl]amino}cyclohexyl)acetamide], the negative logarithm of the Ki (pKi) was 6.38.

For `O=S(=O)(N[C@H]1CC[C@H](Nc2ncc3ccc(OC4CCOC4)cc3n2)CC1)c1ccccc1` (stereo partly drawn) [Example 165, N-(trans-4-{[7-(tetrahydrofuran-3-yloxy)quinazolin-2-yl]amino}cyclohexyl)benzenesulfonamide], the pKi was 6.82.

Turning to `O[C@H]1CC[C@H](Nc2ncc3cccc(OCC4CCCCO4)c3n2)CC1` (stereo partly drawn) [Example 166, trans-4-{[8-(tetrahydro-2H-pyran-2-ylmethoxy)quinazolin-2-yl]amino}cyclohexanol], the pKi was 6.53.

`O[C@H]1CC[C@H](Nc2ncc3cccc(O[C@@H]4CCOC4)c3n2)CC1` [Example 167, trans-4-({8-[(3R)-tetrahydrofuran-3-yloxy]quinazolin-2-yl}amino)cyclohexanol] showed a pKi of 6.19.

Molecule `O[C@H]1CC[C@H](Nc2ncc3cccc(O[C@H]4CCOC4)c3n2)CC1` [Example 168, trans-4-({8-[(3S)-tetrahydrofuran-3-yloxy]quinazolin-2-yl}amino)cyclohexanol] gave a pKi of 6.24.

On to `O[C@H]1CC[C@H](Nc2ncc3cccc(OC4CCOCC4)c3n2)CC1` [Example 169, trans-4-{[8-(tetrahydro-2H-pyran-4-yloxy)quinazolin-2-yl]amino}cyclohexanol], for which the pKi is 6.64.

The molecule `CC(C)Nc1ncc2cccc(OC3CCOCC3)c2n1` [Example 170, N-isopropyl-8-(tetrahydro-2H-pyran-4-yloxy)quinazolin-2-amine] gave a pKi of 5.67.

In the case of `O[C@H]1CC[C@H](Nc2ncc3cccc(OC4CCOC4)c3n2)CC1` (stereo partly drawn) [Example 171, trans-4-{[8-(tetrahydrofuran-3-yloxy)quinazolin-2-yl]amino}cyclohexanol], the negative logarithm of the Ki (pKi) was 6.32.

For `CC(C)Nc1ncc2cccc(OC3CCOC3)c2n1` (stereo not drawn) [Example 172, N-isopropyl-8-(tetrahydrofuran-3-yloxy)quinazolin-2-amine], the pKi was 5.45.
